From patent US20140227173A1, “CANCER TREATMENT WITH GAMMA-SECRETASE INHIBITORS” (The Johns Hopkins University, priority 2006, published 2014)

Columns and labels:
neuroblastoma cell lines = settings: cited from earlier work
D283Med = assay: Side population (Hoechst 33342 excretion) flow cytometry; type: cell-based
Protocol: (§1) The ability to excrete Hoechst dye, which defines SP (also known as “side population”) in flow cytometric analyses, is another marker of tumor-initiating CSC in the blood and brain (7, 8, 20). SP was therefore analyzed to obtain a second measure of the effects of Notch on CSC.
(§2) Flow cytometric analysis of S-phase fraction and cell cycle kinetics was performed using a FACSCalibur (Becton Dickinson, San Jose, Calif.) with CELL Quest, version 3.3 software (15). CD133 studies were performed using the same instrument, with antibodies from Miltenyi (Miltenyi Biotec, Auburn, Calif.) according to the manufacturer's instructions. […] Prior to analysis, cells were washed and resuspended in 2 μg/ml PI (Sigma, St. Louis, Mo.). […] To ensure proper identification of SP cells, cells were incubated as above with the addition of 50 μM verapamil (Sigma).

DAOY = assay: as above; type: cell-based
Protocol: as §1, §2

D425Med = assay: as above; type: cell-based
Protocol: as §1, §2

Q: With `O=C1c2c(O)ccc(O)c2C(=O)c2c(NCCNCCO)ccc(NCCNCCO)c21` [Mitoxantrone] as the compound, how does the side population (neuroblastoma cell lines) read?
A: The side population was “increases the side population”.

Q: With `COc1ccc(CCN(C)CCCC(C#N)(c2ccc(OC)c(OC)c2)C(C)C)cc1OC` (stereo not shown) [verapamil, reference compound] as the compound, how does the side population (D283Med) read?
A: The side population was “ablated”.

Q: What about the “Hoechst excretion (side population)” value (DAOY) of the same compound?
A: The value was “abolished Hoechst excretion”.

Q: And the side population (D425Med)?
A: Its side population is “ablated”.
